Test results from patent US20150057344A1, “PELTATIN FOR THE TREATMENT OF CHRONIC INFLAMMATORY DISORDERS” (priority 2012, published 2015).

Columns and labels:
PPARα = experiment: hPPARa reporter bioassay (Gal4-hPPAR / UAS-luciferase) in HeLa cells; format: cell-based; details: human HeLa cells, dose response
Source text: (§1) In more detail, when PPARs fix their ligands they are able to shuttle from cytoplasm to the nucleus of HeLa cells. Then, PPARs heterodimerize with co-receptors called Retinoid-X-Receptors (RXR). Heterodimeric transcription factors PPAR/RXR are responsible for PPARs-mediated transcriptional program. In this system, hPPARs are fused to Gal4. Gal4 is a yeast transcription activator which specifically binds a Gal4 responsive element so-called Upstream Activation Sequence (UAS)— this short section in a promoter region strongly activates gene transcription. Therefore, cotransfection of Gal4-hPPARs with UAS-luciferase constructs allows identification hPPARs agonists. Agonists will stimulate luciferase transcription resulting in the formation of a functional enzyme that converts substrate to detectable signal by a chemiluminescent reaction.
(§2) The assays detect binding of a ligand to the hPPAR of interest by directly measuring luciferase activity. When PPARs fixe their ligands they are able to shuttle from cytoplasm to the nucleus of HeLa cells. Then, PPARs heterodimerize with co-receptors called Retinoid-X-Receptors (RXR). […]
(§3) An edible plant fraction library was tested for PPARs agonist activity and toxicity. Then relevant plant fractions were further analyzed and bioactive(s) characterized and validated with the same hPPARa, hPPARg or hPPARd reporter bioassays. […]

PPARγ = experiment: hPPARg reporter bioassay (Gal4-hPPAR / UAS-luciferase) in HeLa cells; format: cell-based; details: human HeLa cells, dose response
Source text: as §1, §2, §3

HeLa cells = experiment: Cellular toxicity, standard method, compared to untreated cells; format: cell-based, human; details: up to highest dose used
Procedure: The AC50 (upper part of the insert) and the maximum % activation (lower part of the insert) are given. Cellular toxicity was also assessed with standard method compared to untreated cells and shown in % of toxicity.
An edible plant fraction library was tested for PPARs agonist activity and toxicity. Then relevant plant fractions were further analyzed and bioactive(s) characterized and validated with the same hPPARa, hPPARg or hPPARd reporter bioassays. The reporter bioassay we used in order to identify anti-inflammatory plant properties targeted activation of human PPARs in human HeLa cells (as described in the FIG. 1). All isolated bioactives were tested in a dose response manner in duplicate. Assays were repeated 3-4 times. Shown are mean values obtained. Therefore specificity (for all the three known human PPAR receptors namely PPARα, PPARd and PPARg) and efficacy (full agonist i.e. % maximal activity >100% or partial agonist i.e. % maximal activity <100%) were tested (FIG. 2-4).

SMILES	agonistic activity on PPARα (PPARα)	agonistic activity on PPARγ (PPARγ)	cellular toxicity (% of toxicity) (HeLa cells; FIG. 2, alongside PPARα activation dose-response)	cellular toxicity (% of toxicity) (HeLa cells; FIG. 3, alongside PPARg activation dose-response)	cellular toxicity (% of toxicity) (HeLa cells; FIG. 4, alongside PPARd activation dose-response)
COc1cc([C@@H]2c3cc4c(cc3[C@H](O)[C@H]3COC(=O)[C@H]23)OCO4)cc(OC)c1OC [podophyllotoxin]	dual agonistic activity	dual agonistic activity	–	–	–
COc1cc([C@@H]2c3cc4c(c(O)c3C[C@H]3COC(=O)[C@@H]32)OCO4)cc(OC)c1OC [β-peltatin]	dual agonistic activity	dual agonistic activity	no toxicity was observed	no toxicity was observed	no toxicity was observed
